“Also recorded” adds a separate entry of the source. Read-outs that look alike come from different tables or passages of the source.
Legend:
σ = test: Displacement of selective ligand from σ receptor (δ in text); type: binding; settings: 10^-5 M; 10 µM
GABA A = test: Displacement of selective ligand from GABA A receptor; type: binding; settings: for Dispacement percentage Gaba A: 10^-5 M, 10 µM
[1] = tested on: extra vasation by capsaicine; test: Protection from capsaicine extravasation (Evans bleu); type: in vivo
Excerpt: It is assumed that Capsaicine releases substance P from the peripheral nerve endings of the sensitive fibers C and determines the necrosis of the same. It is known that capsaicine administration provokes the formation of an exudate (extra vasation by capsaicine) which can be evaluated by concomitant Evans bleu administration.

[2] = tested on: coughing stimulus by capsaicin; test: Inhibition of cough induced by inhalation of capsaicin; type: in vivo, guinea pigs; settings: for ED50: Cavia porcellus, po, read-out: ID50 coughing stimulus capsaicin; for % inhibition of the coughing stimulus by capsaicin: guinea pigs, single dose 100 mg/kg
Experimental: (§1) Besides these differences "in vitro" on the receptor behaviour great differences has been evidenced "in vivo" in the tussive stimulus inhibition provoked by inhalation of irritant citric acid as well as capsaicine aqueous solutions.
(§2) The compounds have been tested in guinea pigs in comparison to codeine, used as standard compound, at the single dose of 100 mg/kg according to the technique of Charlier et al., (Arch. Int. Pharmacodyn., 134, 306, 1961) which has been slightly modified.
(§3) The percent reduction evaluated in the number of short coughs after administration of the compound under examination taken in comparison to the number of short coughs observed in each of the animals to which the compound was administered, have been noted.
(§4) For these compounds as well as for the most interesting reference compounds the dose inhibiting 50% of the short coughs (ID50) induced either by citric acid or capsaicine has been determined.

[3] = tested on: sleeping time induced by barbiturates; test: Increase of sleeping time induced by barbiturates; type: in vivo, mice; settings: for sleeping time increase: mice, barbiturate-induced sleep
Excerpt: For each of the compounds under examination it has been also tested the effect on the increase of the sleeping time induced by barbiturates. […]

α2 = test: Displacement of selective ligand from α2 receptor; type: binding; settings: 10^-5 M; 10 µM
Excerpt: (§5) The interaction of Compounds A and B with other receptors (α1, α2, benzodiazepine (o bzd), GABA A, δ) in comparison to the typical 5-HT3 antagonist Ondastron and BRL 24682 has been studied and for each case the displacement % of the single selective ligand from the corresponding receptor at concentration 10^-5 M of the compounds under examination, has been evaluated.

[4] = tested on: coughing stimulus by ac. citric; test: Inhibition of cough induced by inhalation of citric acid; type: in vivo, guinea pigs; settings: for ED50: Cavia porcellus, po, read-out: ID50 coughing stimulus ac. citric; for % inhibition of the coughing stimulus by ac. citric: guinea pigs, single dose 100 mg/kg
Experimental: as §1, §2, §3, §4

α1 = test: Displacement of selective ligand from α1 receptor; type: binding; settings: 10^-5 M; 10 µM
Excerpt: as §5

5-HT1 = test: Binding test 5-HT1; settings: at 3.6 10^-5 M
Excerpt: Compounds A and Compounds B of the present invention, which are examples of endo-tropyl and quinuclidylamide of 7-azaindolyl-3-carboxylic acid respectively have been studied "in vitro" for their interaction with the 5-HT1, 5-HT2 and 5-HT3 receptors.
Binding Test: 5-HT1 5-HT2
% of inhibition at 3.6 10^-5 M

[5] = tested on: coughing stimulus by capsaicin; test: Inhibition of cough induced by inhalation of capsaicin; type: in vivo; settings: guinea pigs
[6] = tested on: cough induced by capsaicine; test: Antitussive effect, capsaicine aqueous solution as irritant (Table V); type: in vivo, mice; settings: os; for short coughs average n° ± s.e. / short coughs inhib. %: single dose 100 mg/kg, mice
Experimental: Further compound A (N-endo-8-methyl-8-azabicyclo [3,2,1] oct-3-yl)-7-azaindolyl-3-carboxamide has been tested for its antitussive effect in comparison to the closest compound belonging to the class of compounds of Japanese Kokai Tokkyo Koho JP 04 21 681, i.e., 8-methyl-8-azabicyclo [3,2,1] oct-3-yl)-1-methyl-7-azaindolyl-3-carboxamide. The compounds were administered by os at a single dose of 100 mg/kg on mice using as irritant agent capsaicine aqueous solution according to the previous mentioned technique.
Further compound A (N-endo-8-methyl-8-azabicyclo .vertline.3,2,1.vertline. oct-3-yl)-7-azaindolyl-3-carboxamide has been tested for its antitussiv effect in comparison to the closest compound belonging to the class of compounds of Jpn. Kokai Tokkyo Koho JP 04 21 681, i.e. 8-methyl-8-azabicliclo .vertline.3,2,1.vertline. oct-3-yl)-1-methyl-7-azaindolyl-3-carboxamide. The compounds were administered by os at a single dose of 100 mg/kg on mice using as irritant agent capsaicine aqueous solution according to the previous mentioned technique.

[7] = tested on: benzodiazepine (bdz) receptor; test: Displacement of selective ligand from benzodiazepine receptor; type: binding
Excerpt: as §5

[8] = tested on: coughing stimulus by 2N H2 SO4; test: Inhibition of cough induced by 2N H2SO4; type: in vivo, guinea pigs; settings: Cavia porcellus, po, read-out: ID50 coughing stimulus 2N H2 SO4
Acute oral toxicity = settings: mouse, in vivo, mice
Experimental: The compounds of the invention may be administered by oral, sublingual, endovenous, subcutaneous, intramuscular, rectal route and by inhalation. The preferred doses vary from about 0.05 to about 15 mg/kg/die, depending on the conditions, weight, age of the patient and on the administration route. Higher dosages of the compounds of the invention, even for a prolonged period of time, have no contraindication because of their very low toxicity.

5-HT2 = test: Binding test 5-HT2; settings: at 3.6 10^-5 M
5-HT3 = biological target: T1, 5-HT3 (Homo sapiens, UniProt P46098); test: Binding test 5-HT3
T1 sequence (P46098 24-478): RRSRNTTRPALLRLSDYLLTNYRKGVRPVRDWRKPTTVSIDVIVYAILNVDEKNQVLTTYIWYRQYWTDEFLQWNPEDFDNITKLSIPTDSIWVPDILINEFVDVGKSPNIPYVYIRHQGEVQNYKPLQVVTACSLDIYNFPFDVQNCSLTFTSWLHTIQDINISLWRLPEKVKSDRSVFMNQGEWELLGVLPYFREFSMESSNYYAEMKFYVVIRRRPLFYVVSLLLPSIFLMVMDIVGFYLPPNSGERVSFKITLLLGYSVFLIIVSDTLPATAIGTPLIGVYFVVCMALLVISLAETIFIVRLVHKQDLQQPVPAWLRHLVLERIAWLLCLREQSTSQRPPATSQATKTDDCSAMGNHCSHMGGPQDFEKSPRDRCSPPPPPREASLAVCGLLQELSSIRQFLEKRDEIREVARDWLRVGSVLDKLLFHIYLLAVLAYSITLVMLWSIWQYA

Cc1nccn1CC1CCc2c(c3ccccc3n2C)C1=O (racemic) [Ondasetron, reference compound]
Dispacement percentage σ (σ): 45%
interaction towards GABA A receptor (in words) (GABA A): aspecific
Dispacement percentage Gaba A (GABA A): 38%
protection from capsaicine extravasation (in words) ([1]; 10 mg/kg i.p.): Solely Compound A and not Ondasetron has been found to give a 42% protection
ED50 ([2]; os, 95% confidence): 97 mg/kg
% inhibition of the coughing stimulus by capsaicin [2]: 50.5%
sleeping time increase ([3]; at the dose of 10 mg/kg): -8
Dispacement percentage α2 (α2): 30%
ED50 ([4]; os, 95% confidence): 209 mg/kg
% inhibition of the coughing stimulus by ac. citric [4]: 30.5%
Dispacement percentage α1 (α1): 72%
% of inhibition 5-HT1 (5-HT1): 7.6%

COc1ccccc1CN[C@H]1C2CCN(CC2)[C@H]1C(c1ccccc1)c1ccccc1 (relative stereo) [CP 96 345]
short cough inhibition, capsaicin ([5]; 10 mg/kg intraperitoneal): 26%
short cough inhibition, capsaicin ([5]; 40 mg/kg intraperitoneal): 42%

CN1C2CCC1CC(NC(=O)c1cn(C)c3ncccc13)C2 (stereo not shown) [8-methyl-8-azabicyclo [3,2,1] oct-3-yl)-1-methyl-7-azaindolyl-3-carboxamide, reference compound]
short coughs average n° ± s.e. [6]: 6.5 ± 0.7
short coughs inhib. % [6]: 6%

COc1cc(N)c(Cl)cc1C(=O)N[C@H]1C[C@H]2CC[C@@H](C1)N2C [BRL 24682, N-(endo-8-methyl-8-azabicyclo-[3.2.1]oct-3-yl)-2-methoxy-4-amino-5-chlorobenzamide, reference compound]
Dispacement percentage σ (σ): 0%
interaction towards GABA A receptor (in words) (GABA A): high interaction with the benzodiazepine and GABA A receptors
Dispacement percentage Gaba A (GABA A): 89%
sleeping time increase ([3]; oral, single dose 100 mg/kg): +34.8
Dispacement percentage α2 (α2): 16%
% inhibition of the coughing stimulus by ac. citric [4]: 44.1%
Dispacement percentage α1 (α1): 28%
interaction with benzodiazepine receptor (in words) [7]: high interaction with the benzodiazepine and GABA A receptors
Dispacement percentage bdz ([7]; 10^-5 M, 10 µM): 98%

COc1ccc2c3c1O[C@H]1[C@@H](O)C=C[C@H]4[C@@H](C2)N(C)CC[C@@]341 [Codeine, reference compound]
ED50 [2]: 74 mg/kg
% inhibition of the coughing stimulus by capsaicin [2]: 58.4%
sleeping time increase ([3]; oral, single dose 100 mg/kg): +106.4
ED50 [4]: 65 mg/kg
% inhibition of the coughing stimulus by ac. citric [4]: 63.2%
ED50 [8]: 102 mg/kg

CN1[C@@H]2CC[C@H]1C[C@@H](NC(=O)c1c[nH]c3ncccc13)C2 [Compound A, N-(endo-8-methyl-8-azabicyclo[3.2.1]oct-3-yl)-7-azaindolyl-3-carboxamide]
Dispacement percentage σ (σ): 70%
interaction towards GABA A receptor (in words) (GABA A): unusual ability of a double interaction, apparently selective, towards GABA A and δ receptors
Dispacement percentage Gaba A (GABA A): 83%
protection from capsaicine extravasation ([1]; 10 mg/kg intraperitoneal, vs non-treated animals): 42%
antitussive effect, Table V (in words) ([6]; 100 mg/kg): effective as an antitussive compound; also recorded: effectiveness of compound A as antitussive compound
short coughs average n° ± s.e. [6]: 1.8 ± 0.5
short coughs inhib. % [6]: 75%
ED50 [2]: 51 mg/kg
antitussive effect, capsaicin (in words) ([2]; guinea pig, in vivo): depends on the dose administered; also recorded: at least equiactive as codeine
% inhibition of the coughing stimulus by capsaicin [2]: 76.30%
sleeping time increase ([3]; oral, single dose 100 mg/kg): -28.9
increase of the sleeping time induced by barbiturates (in words) ([3]; mouse, in vivo): does not show any increase of the sleeping time induced by barbiturates
LD50 (Acute oral toxicity): 1000 mg/kg
ED50 [4]: 57 mg/kg
antitussive effect, citric acid (in words) ([4]; guinea pig, in vivo): depends on the dose administered; also recorded: at least equiactive as codeine
% inhibition of the coughing stimulus by ac. citric [4]: 61.7%
% of inhibition 5-HT2 (5-HT2): 8.6%
IC50 (5-HT3): 3 µM
interaction with 5-HT3 receptors (in words) (5-HT3): very weak interaction with 5-HT3 receptors
interaction with 5-HT3 receptors relative to Compound B (in words) (5-HT3; vs Compound B): logarithmically lower than that of Compound B
interaction with 5-HT3 receptors relative to Ondasetron (times lower) (5-HT3; vs Ondasetron): 1,000 times
Dispacement percentage α1 (α1): 13%
% of inhibition 5-HT1 (5-HT1): 0.0%

O=C(NC1CN2CCC1CC2)c1c[nH]c2ncccc12 (stereo not shown) [Compound B, N-(1-azabicyclo[2.2.2]oct-3-yl)-7-azaindolyl-3-carboxamide]
Dispacement percentage σ (σ): 26%
interaction towards GABA A receptor (in words) (GABA A): definitely weak or absent
Dispacement percentage Gaba A (GABA A): 6.7%
% inhibition of the coughing stimulus by capsaicin [2]: 21.0%
sleeping time increase ([3]; oral, single dose 100 mg/kg): -7
% inhibition of the coughing stimulus by ac. citric [4]: 46.0%
% of inhibition 5-HT2 (5-HT2): 3.9%
IC50 (5-HT3): 0.3 µM
Dispacement percentage α1 (α1): 7%
% of inhibition 5-HT1 (5-HT1): 37.0%

OC[C@@H](O)CN1CCN(c2ccccc2)CC1 [Levodropropyzina]
ED50 ([2]; os, 95% confidence): 145 mg/kg
ED50 ([4]; os, 95% confidence): 151 mg/kg
ED50 ([8]; os, 95% confidence): 265 mg/kg

— patent US5750536A, “Tropyl 7-azaindol-3-ylcarboxyamides as antitussive agent” (priority 1993, dated 1998)
